Source: PMC11111404, “Discovery of potent small-molecule inhibitors of lipoprotein(a) formation” (Nature, 2024)
Several values for one entry are separate records, joined by “and”; a condition that tells them apart may be missing. Equal entries are not always repeated. Values belong to the compound of their own block, whether it stands above or below them.

Experiments:
[1] = target: T1, Lp(a) assembly (recombinant human 16K apo(a) and apoB) (Homo sapiens, UniProt P08519); test: In vitro Lp(a) assembly assay; type: biochemical
T1 construct: containing one KIV type 1, six KIV type 2 repeats, one each of KIV types 3–10 and one KV; expressed in transfected cells; host or cells: Conditioned medium of HEK293 (CRL-1573) stably expressing 16K apo(a), combined with conditioned medium of wild-type HepG2 (HB-8065) for endogenous apoB
T1 sequence (P08519 20-2040): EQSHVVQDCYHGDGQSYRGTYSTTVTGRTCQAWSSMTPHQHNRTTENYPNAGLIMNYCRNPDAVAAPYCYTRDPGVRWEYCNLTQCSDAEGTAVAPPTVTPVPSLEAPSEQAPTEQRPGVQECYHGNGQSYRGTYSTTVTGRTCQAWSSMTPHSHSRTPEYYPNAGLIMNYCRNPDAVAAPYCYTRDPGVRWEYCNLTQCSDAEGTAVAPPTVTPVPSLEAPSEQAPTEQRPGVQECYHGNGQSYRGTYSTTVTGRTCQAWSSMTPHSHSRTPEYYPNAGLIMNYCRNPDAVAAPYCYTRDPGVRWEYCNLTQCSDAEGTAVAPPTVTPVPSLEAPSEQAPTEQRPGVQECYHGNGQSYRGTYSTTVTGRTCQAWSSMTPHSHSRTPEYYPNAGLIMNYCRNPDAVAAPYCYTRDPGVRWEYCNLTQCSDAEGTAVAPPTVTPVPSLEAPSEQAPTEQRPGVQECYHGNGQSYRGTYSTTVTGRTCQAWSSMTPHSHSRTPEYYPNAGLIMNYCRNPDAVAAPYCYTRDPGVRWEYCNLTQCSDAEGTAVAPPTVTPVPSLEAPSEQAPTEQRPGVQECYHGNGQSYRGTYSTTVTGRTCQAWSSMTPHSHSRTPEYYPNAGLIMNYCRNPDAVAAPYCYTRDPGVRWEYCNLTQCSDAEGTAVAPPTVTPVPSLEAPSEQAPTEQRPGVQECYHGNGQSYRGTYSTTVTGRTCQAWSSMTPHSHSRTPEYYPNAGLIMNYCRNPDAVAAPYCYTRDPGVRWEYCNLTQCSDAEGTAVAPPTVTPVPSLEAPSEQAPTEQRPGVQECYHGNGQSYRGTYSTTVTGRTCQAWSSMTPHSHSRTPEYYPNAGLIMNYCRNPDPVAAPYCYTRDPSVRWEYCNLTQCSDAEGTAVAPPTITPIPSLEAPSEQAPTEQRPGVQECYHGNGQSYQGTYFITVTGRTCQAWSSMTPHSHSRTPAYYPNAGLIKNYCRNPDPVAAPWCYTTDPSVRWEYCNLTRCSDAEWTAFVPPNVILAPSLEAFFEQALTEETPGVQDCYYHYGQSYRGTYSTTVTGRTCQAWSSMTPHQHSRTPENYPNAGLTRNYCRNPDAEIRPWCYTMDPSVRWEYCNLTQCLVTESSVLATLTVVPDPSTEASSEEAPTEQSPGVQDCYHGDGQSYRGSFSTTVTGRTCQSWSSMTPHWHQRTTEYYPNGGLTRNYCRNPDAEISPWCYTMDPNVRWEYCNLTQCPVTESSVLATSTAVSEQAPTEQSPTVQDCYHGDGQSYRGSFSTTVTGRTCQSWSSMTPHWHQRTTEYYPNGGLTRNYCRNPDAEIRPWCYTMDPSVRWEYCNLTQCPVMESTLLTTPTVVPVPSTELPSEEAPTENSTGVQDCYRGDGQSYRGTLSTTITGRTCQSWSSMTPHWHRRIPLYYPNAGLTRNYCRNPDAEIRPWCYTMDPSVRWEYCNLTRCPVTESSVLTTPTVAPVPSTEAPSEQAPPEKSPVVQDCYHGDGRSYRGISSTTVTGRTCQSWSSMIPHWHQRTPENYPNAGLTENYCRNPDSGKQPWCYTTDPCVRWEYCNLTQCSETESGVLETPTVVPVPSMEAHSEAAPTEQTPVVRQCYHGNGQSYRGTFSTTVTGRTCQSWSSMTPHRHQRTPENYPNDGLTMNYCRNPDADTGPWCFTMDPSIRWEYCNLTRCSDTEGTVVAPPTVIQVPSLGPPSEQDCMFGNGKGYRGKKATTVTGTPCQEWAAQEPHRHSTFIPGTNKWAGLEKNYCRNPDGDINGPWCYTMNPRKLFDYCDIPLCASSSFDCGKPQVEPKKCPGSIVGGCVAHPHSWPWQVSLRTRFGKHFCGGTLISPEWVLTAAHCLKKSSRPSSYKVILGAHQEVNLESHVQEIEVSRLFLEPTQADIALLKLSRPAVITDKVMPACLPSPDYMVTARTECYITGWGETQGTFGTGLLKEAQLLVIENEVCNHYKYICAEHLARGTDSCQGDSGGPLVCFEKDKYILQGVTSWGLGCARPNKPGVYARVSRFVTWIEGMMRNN
Description: HepG2 cells (HB-8065, ATCC) were cultured in Dulbecco’s modified Eagle’s medium, supplemented with 10% fetal bovine serum, 20 mM 4-(2-hydroxyethyl)-1-piperazineethanesulfonic acid (HEPES) and 100 U ml^−1 penicillin–streptomycin. apoB-conditioned media were collected after 24 h of culture at 37 °C and 5% CO2 from confluent wild-type HepG2 cells that endogenously express and secrete apoB. Apo(a)-conditioned media were collected after 24 h of culture at 37 °C and 5% CO2 from HEK293 cells (CRL-1573, ATCC) that stably express and secrete recombinant human 16K apo(a) protein containing one KIV type 1, six KIV type 2 repeats, one each of KIV types 3–10 and one KV.
The assembly assay was conducted in 96-well polypropylene plates by combining HepG2 and apo(a)-HEK293-conditioned media in the presence of a range of compound concentrations. After a two-hour incubation period at 37 °C, the reaction was stopped by the addition of 6-aminocaproic acid. Lp(a) was detected using a sandwich enzyme-linked immunosorbent assay (ELISA), with a polyclonal goat anti-apo(a) capture antibody (Abcam ab31675) and a biotin-conjugated, polyclonal goat anti-apoB detection antibody (Abcam ab20898). In brief, ELISA plates were coated with 100 μl of the capture antibody at a 1:12,500 dilution (around 4 μg ml^−1) into HEPES-buffered saline (HBS), incubated overnight at 4 °C, washed and blocked by the addition of 200 μl of 1% casein. After removal of the blocking buffer, 20 μl of each of the assembly reactions or of a dilution series of purified human Lp(a) (Athens Research, 12-16-121601), diluted 1:5 into HBS supplemented with 0.5% casein, were added to the ELISA plate. […] Absorbance at 450 nm was measured on an Envision plate reader.
The concentration of Lp(a) formed in each test condition was determined on the basis of the standard curve constructed from the purified human Lp(a) used as a reference standard, and was normalized to high (buffer) and low (no apoB) controls. […] Data were analysed in GraphPad Prism v.9.5.1.

[2] = target: T2, plasminogen (Rattus norvegicus, UniProt Q01177); test: Rat plasma plasminogen concentration (ELISA) after oral dosing; type: in vivo; details: for PLG mass, Plasminogen (mean of replicates) / PLG mass, Replicate 1 / PLG mass, Replicate 2: rat plasma, individual animal
T2 construct: Plasma samples were collected via the abdominal aorta; from tissue; host or cells: Citrated plasma of orally dosed male Sprague Dawley rats
T2 sequence (Q01177 20-812 limits assumed): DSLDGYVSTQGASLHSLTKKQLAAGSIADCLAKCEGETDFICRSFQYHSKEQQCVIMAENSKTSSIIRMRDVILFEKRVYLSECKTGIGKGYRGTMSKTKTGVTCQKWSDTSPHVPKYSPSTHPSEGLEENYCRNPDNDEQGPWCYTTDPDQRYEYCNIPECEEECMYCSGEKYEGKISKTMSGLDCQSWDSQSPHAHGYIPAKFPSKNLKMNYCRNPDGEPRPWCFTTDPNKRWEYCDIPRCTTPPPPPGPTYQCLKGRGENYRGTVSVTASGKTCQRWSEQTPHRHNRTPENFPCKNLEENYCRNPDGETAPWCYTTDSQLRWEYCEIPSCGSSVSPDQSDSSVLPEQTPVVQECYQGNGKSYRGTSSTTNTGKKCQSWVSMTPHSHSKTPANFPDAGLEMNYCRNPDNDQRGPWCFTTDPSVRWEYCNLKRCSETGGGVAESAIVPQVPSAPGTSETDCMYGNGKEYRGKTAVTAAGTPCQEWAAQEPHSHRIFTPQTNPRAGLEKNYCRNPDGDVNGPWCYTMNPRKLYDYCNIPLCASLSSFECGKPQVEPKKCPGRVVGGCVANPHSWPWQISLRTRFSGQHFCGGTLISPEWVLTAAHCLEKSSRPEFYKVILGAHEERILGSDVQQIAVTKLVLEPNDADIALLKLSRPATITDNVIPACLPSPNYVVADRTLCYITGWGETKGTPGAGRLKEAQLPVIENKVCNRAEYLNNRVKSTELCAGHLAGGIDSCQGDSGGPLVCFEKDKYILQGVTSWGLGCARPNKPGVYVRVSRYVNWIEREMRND
Description: Male Sprague Dawley rats (Charles River, average body weight 310 g, aged eight to nine weeks old) were housed in cages with a standard light cycle (12-h light, 12-h dark), at room temperature (22 ± 4 °C), with a relative humidity of 30–70%. Rats were identified by numbers on the cage cards. After arrival, rats were fed on a normal diet (Harlan Teklad diet 2014) and randomized to treatment groups (n = 5 per group) by baseline plasma plasminogen concentration and activity using a BRAT. LSN3441732 and LY3473329 were administered QD orally at three dose levels (3.7, 12.3 and 37 mg kg^−1; 3.2, 10.5 and 31.6 mg kg^−1 per dose, respectively) or vehicle (10 ml kg^−1, 1% HEC, 0.25% Tween-80, Antifoam) for four days. Terminal blood was drawn under general anaesthesia 24 h after the day-4 oral dose. Plasma samples were collected via the abdominal aorta into a premeasured anticoagulant BD Vacutainer used for blood collection (2.7 ml, buffered sodium citrate). The liver was flash frozen in liquid nitrogen. To measure plasminogen activity, 100 µl plasma per well was added to a 96-well plate (Corning) and the following were added to the indicated concentrations: 7.5 mM CaCl2 and 117 mM NaCl. Wells were mixed and warmed to 37 °C. Urokinase (Millipore) was added at 125 U per well and the plate was incubated at 37 °C for 4 min. The plasminogen substrate Chromogenix S-2251 (DiaPharma) was added to a concentration of 3.3 mM. The mixture was added and the plate was sealed and placed in a prewarmed plate reader, shaken, and the absorbance read every 30 s for 2 h. The maximum slope for each curve was determined and the percentage inhibition was calculated relative to untreated controls. Plasminogen protein was measured using ELISA kits for rat (Abcam ab157740) according to the manufacturer’s instructions. Plasminogen activity (percentage) and mass (µg ml^−1) in rat were analysed by ANOVA in JMP 16.1.0. The percentage reduction of plasminogen activity and mass for each treated group was compared with vehicle by Dunnett’s method.

[3] = tested on: Plg mRNA; test: Rat hepatic Plg mRNA after oral dosing; type: in vivo; details: rats, daily oral dosing
Description: Male Sprague Dawley rats (Charles River, average body weight 310 g, aged eight to nine weeks old) were housed in cages with a standard light cycle (12-h light, 12-h dark), at room temperature (22 ± 4 °C), with a relative humidity of 30–70%. Rats were identified by numbers on the cage cards. After arrival, rats were fed on a normal diet (Harlan Teklad diet 2014) and randomized to treatment groups (n = 5 per group) by baseline plasma plasminogen concentration and activity using a BRAT. LSN3441732 and LY3473329 were administered QD orally at three dose levels (3.7, 12.3 and 37 mg kg^−1; 3.2, 10.5 and 31.6 mg kg^−1 per dose, respectively) or vehicle (10 ml kg^−1, 1% HEC, 0.25% Tween-80, Antifoam) for four days. Terminal blood was drawn under general anaesthesia 24 h after the day-4 oral dose. Plasma samples were collected via the abdominal aorta into a premeasured anticoagulant BD Vacutainer used for blood collection (2.7 ml, buffered sodium citrate). […]
RNA was isolated from the liver using the PureLink RNA Mini Kit (Invitrogen) and quantified using the NanoDrop spectrophotometer (Thermo Fisher Scientific). […] Quantitative PCR was conducted using TaqMan reagents and primers (Plg Rn00585167_m1, Gapdh Rn99999916_s1). Relative quantitation was calculated using the comparative Ct method. Statistical significance was evaluated using JMP v.16.1.0 software (SAS).

[4] = tested on: plasmin activity; set-up: method as in PMID 37638695; details: human phase 1 study; cited from earlier work
[5] = 3441732 dose 3.7 mpk, 3.7 mg/kg
[6] = 3441732 dose 12.3 mpk, 12.3 mg/kg
[7] = 3473329 dose 3.2 mpk, 3.2 mg/kg
[8] = 3473329 dose 10.5 mpk, 10.5 mg/kg
[9] = 3473329 dose 31.6 mpk, 31.6 mg/kg

- IC50 [1]: 0.18 nM
- plasma levels of plasminogen protein ([2]; rats, oral dosing): decreased in a dose-dependent manner
- levels of hepatic Plg mRNA [3]: unchanged
Structure (SMILES): Cl.Cl.O=C(Nc1cccc(C[C@H](C(=O)O)[C@H]2CCNC2)c1)Nc1cccc(C[C@H](C(=O)O)[C@H]2CCNC2)c1 [LSN3441732]
- PLG mass, Plasminogen (mean of replicates) [2, 5]: 199.7 µg/mL and 188.1 µg/mL and 194.6 µg/mL and 164.2 µg/mL and 177.8 µg/mL
- PLG mass, Replicate 1 [2, 5]: 193.976 µg/mL and 187.308 µg/mL and 191.488 µg/mL and 158.900 µg/mL and 169.900 µg/mL
- PLG mass, Replicate 2 [2, 5]: 205.500 µg/mL and 188.992 µg/mL and 197.772 µg/mL and 169.500 µg/mL and 185.664 µg/mL
- PLG mass, Plasminogen (mean of replicates) [2, 6]: 192.7 µg/mL and 158.1 µg/mL and 151.7 µg/mL and 134.6 µg/mL and 119.3 µg/mL
- PLG mass, Replicate 1 [2, 6]: 187.144 µg/mL and 151.612 µg/mL and 145.376 µg/mL and 127.920 µg/mL and 115.472 µg/mL
- PLG mass, Replicate 2 [2, 6]: 198.344 µg/mL and 164.496 µg/mL and 157.928 µg/mL and 141.248 µg/mL and 123.088 µg/mL
- PLG mass, Plasminogen (mean of replicates) ([2]; 3441732 dose 37 mpk, 37 mg/kg): 113.7 µg/mL and 124.7 µg/mL and 116.9 µg/mL and 125.1 µg/mL and 127.8 µg/mL
- PLG mass, Replicate 1 ([2]; 3441732 dose 37 mpk, 37 mg/kg): 111.012 µg/mL and 118.768 µg/mL and 109.952 µg/mL and 121.004 µg/mL and 125.228 µg/mL
- PLG mass, Replicate 2 ([2]; 3441732 dose 37 mpk, 37 mg/kg): 116.416 µg/mL and 130.704 µg/mL and 123.756 µg/mL and 129.140 µg/mL and 130.432 µg/mL

- IC50 [1]: 0.09 nM
Structure (SMILES): O=C(O)[C@@H](Cc1cccc(CN(Cc2cccc(C[C@H](C(=O)O)[C@H]3CCNC3)c2)Cc2cccc(C[C@H](C(=O)O)[C@H]3CCNC3)c2)c1)[C@H]1CCNC1 [LY3473329]
- PLG mass, Plasminogen (mean of replicates) [2, 7]: 281.7 µg/mL and 301.7 µg/mL and 249.5 µg/mL and 274.1 µg/mL and 246.9 µg/mL
- PLG mass, Replicate 1 [2, 7]: 275.600 µg/mL and 301.472 µg/mL and 251.100 µg/mL and 270.384 µg/mL and 245.604 µg/mL
- PLG mass, Replicate 2 [2, 7]: 287.828 µg/mL and 301.932 µg/mL and 247.992 µg/mL and 277.820 µg/mL and 248.160 µg/mL
- PLG mass, Plasminogen (mean of replicates) [2, 8]: 239.9 µg/mL and 236.1 µg/mL and 242.7 µg/mL and 225.5 µg/mL and 223.8 µg/mL
- PLG mass, Replicate 1 [2, 8]: 241.392 µg/mL and 228.556 µg/mL and 235.352 µg/mL and 212.812 µg/mL and 213.952 µg/mL
- PLG mass, Replicate 2 [2, 8]: 238.436 µg/mL and 243.736 µg/mL and 249.956 µg/mL and 238.240 µg/mL and 233.564 µg/mL
- PLG mass, Plasminogen (mean of replicates) [2, 9]: 199.2 µg/mL and 187.7 µg/mL and 187.4 µg/mL and 229.5 µg/mL and 225.0 µg/mL
- PLG mass, Replicate 1 [2, 9]: 197.560 µg/mL and 179.928 µg/mL and 183.640 µg/mL and 229.888 µg/mL and 216.732 µg/mL
- PLG mass, Replicate 2 [2, 9]: 200.844 µg/mL and 195.380 µg/mL and 191.112 µg/mL and 229.028 µg/mL and 233.256 µg/mL
- plasmin activity at oral doses lowering Lp(a) [4]: without affecting plasmin activity
